Reference: paper PMC10366102, “Dose escalation and expansion cohorts in patients with advanced breast cancer in a Phase I study of the CDK7-inhibitor samuraciclib” (Nature Communications, 2023)
Entries after “also recorded” stand apart in the source; their conditions may differ.

What was measured:
CYP2C8 = test system: CYP2C8; parameters: method as in ref IB; settings: human microsomes; ref IB; cited from earlier work
pPolII = assay: Immunohistochemistry H-score in paired tumor biopsies, pPolII; format: in vivo, human
Experimental: Per-protocol ctDNA samples were taken in Module 1B-1 at screening, C1D1, C2D1 and on D1 of alternating cycles from Cycle 3; in Module 2A at screening, C1D1 and at either C2D1 (240 mg) or C2D15 (360 mg) for mutational analysis[24],[33], (Supplementary Information). pPolII in lymphocytes and pPolII and pCDK1/2/3 in core needle tissue samples from patients recruited to the paired biopsy cohort were evaluated for on-target pharmacodynamic analyses. […]
pharmacodynamic effects in tumor tissue. […]
variability in H-score was observed between sections. […]
H-scores for pre-dose and on-study biopsies and summary statistics for the observed H-score when stained for pCDK1/2/3 and pPolII are shown in Supplementary Table 11. Significance was calculated using Student’s one-tailed paired t-test, where the alternative hypothesis was that on-study samples had

[1] = test system: patients with locally advanced and/or metastatic TNBC; settings: both, human, in vivo
Experimental: A single arm expansion was conducted to refine the safety, tolerability, PK, and pharmacodynamic profiles of samuraciclib monotherapy (360 mg OD) in male or female patients with advanced TNBC. Patients with histological, radiological or cytological confirmation of metastasis or locally advanced TNBC not considered to be appropriate for further standard treatment, who had received at least 1 line of systemic anti-cancer therapy, and measurable disease according to the RECIST V1.1, were eligible.
Patients underwent regular safety monitoring and 8-week scans reported using RECIST V1.1.
Module 1B-1 was a cohort expansion to explore the safety, tolerability, PK and pharmacodynamic effects, and anti-tumor activity of samuraciclib when given as monotherapy to patients with advanced TNBC; participants were treated at a starting dose of 360 mg once daily (OD). The initial sample size was to be a maximum of 50 participants, of whom approximately 30 participants were to receive the CT7001 dosing regimen which was declared as the RP2D.
Module 1B-1 included an interim efficacy analysis when 15 patients in the RP2D Population were evaluable for efficacy assessments. The Module 1B-1 TNBC expansion phase was designed using a 2-stage design. The null hypothesis for the ORR was 10% and this was tested against an alternative […]
patients were to be recruited, and the […]. Otherwise, recruitment was to continue until up to a total of 30 evaluable patients were recruited and if ≥6/30 (20%) responses were observed, across both stages of the study, the null hypothesis was to be rejected. At the timepoint for the interim efficacy assessment, the requirement of 2 or more participants achieving a Response Evaluation Criteria in Solid Tumors (RECIST) PR had not been met, with only 1 participant in the first 15 evaluable participants achieving a PR. However, 8 out of 15 evaluable participants achieved SD, with 4 participants being treated for at least 16 weeks, which in this aggressive tumor type is of significant clinical note. Following discussion with the SRC it was agreed that further evaluable participants would be recruited into this expansion study.
The schedule of assessments for this study is provided in Supplementary Table 3. […]
Duration of response (DoR) was defined as the time from documentation of tumor response to disease progression. Progression-free survival (PFS) was […]
cause, whichever occurred first. Efficacy results were summarized descriptively and Kaplan -Meier plots provided where appropriate. […]
received at least 1 dose of samuraciclib). These were summarized by Medical Dictionary for Regulatory […]
adverse events (SAEs) were analyzed and reported separately. Details of any deaths were listed. All […]
were listed individually by patient and summarized descriptively. For urinalysis parameters, any […]
positive. Abnormal physical examina tion findings were listed.

[2] = parameters: method as in ref IB; settings: mouse microsomes; ref IB; cited from earlier work
[3] = parameters: method as in ref IB; settings: human microsomes and hepatocytes in vitro; ref IB; cited from earlier work
[4] = test system: tumour cell lines, including TNBC; parameters: method as in ref Patel et al, 2018 Ainscow et al, 2018; Clark et al, 2017, Ali et al, 2018; settings: wide range of tumour cell lines, ref Patel et al, 2018 Ainscow et al, Clark et al, 2017, Ali et al; cited from earlier work
CYP2B6 = test system: CYP2B6; parameters: method as in ref IB; settings: human microsomes; ref IB; cited from earlier work

SMILES: CC(C)c1cnn2c(NCc3ccccc3)cc(NC[C@H]3CCNC[C@@H]3O)nc12 [samuraciclib, Samuraciclib]
- IC50 (CYP2C8): > 50 µM
- pPolII H-Score, On study, average (pPolII; Average 240mg OD patients, pre-dose 239): 208
- pPolII H-Score, On study, average (pPolII; Average 360mg OD patients, pre-dose 277): 271
- pPolII H-Score, On study, average (pPolII; Average all patients, pre-dose 258): 240
- pPolII H-Score, On study (pPolII; HR+ breast cancer, breast biopsy, 360 mg OD, pre-dose 286): 271
- pPolII H-Score, On study (pPolII; HR+ breast cancer, liver biopsy, 240 mg OD, pre-dose 243): 225
- pPolII H-Score, On study (pPolII; HR+ breast cancer, liver biopsy, 240 mg OD, pre-dose 251): 232
- pPolII H-Score, On study (pPolII; HR+ breast cancer, liver biopsy, 360 mg OD, pre-dose 271): 262
- pPolII H-Score, On study (pPolII; HR+ breast cancer, liver biopsy, 360 mg OD, pre-dose 273): 281
- pPolII H-Score, On study (pPolII; Rhabdomyosarcoma, axilla biopsy, 240 mg OD, pre-dose 223): 167
- pPolII in tumor tissue (pPolII; paired biopsy cohort): reduction of phosphorylated RNA polymerase II; also recorded: A reduction in pPolII was also seen in tumor tissue
- ALT increased; All AEs [1]: 0 patients (%)
- ALT increased; Grade ≥3 [1]: 0 patients (%)
- AST increased; All AEs [1]: 0 patients (%)
- AST increased; Grade ≥3 [1]: 0 patients (%)
- Abdominal pain upper; All AEs [1]: 0 patients (%)
- Abdominal pain upper; Grade ≥3 [1]: 0 patients (%)
- Abdominal pain; All AEs [1]: 6 (26.1) patients (%)
- Abdominal pain; Grade ≥3 [1]: 0 patients (%)
- Anemia; All AEs [1]: 0 patients (%)
- Anemia; Grade ≥3 [1]: 1 (4.3) patients (%)
- Any treatment-emergent AE; All AEs [1]: 23 (100.0) patients (%)
- Any treatment-emergent AE; Grade ≥3 [1]: 10 (43.5) patients (%)
- Back pain; All AEs [1]: 0 patients (%)
- Back pain; Grade ≥3 [1]: 0 patients (%)
- Constipation; All AEs [1]: 7 (30.4) patients (%)
- Constipation; Grade ≥3 [1]: 0 patients (%)
- Cough; All AEs [1]: 3 (13.0) patients (%)
- Cough; Grade ≥3 [1]: 0 patients (%)
- Decreased appetite; All AEs [1]: 3 (13.0) patients (%)
- Decreased appetite; Grade ≥3 [1]: 0 patients (%)
- Diarrhea; All AEs [1]: 21 (91.3) patients (%)
- Diarrhea; Grade ≥3 [1]: 3 (13.0) patients (%)
- Discontinued samuraciclib due to related AEs [1]: 4.3%
- Dizziness; All AEs [1]: 0 patients (%)
- Dizziness; Grade ≥3 [1]: 0 patients (%)
- Dysgeusia; All AEs [1]: 0 patients (%)
- Dysgeusia; Grade ≥3 [1]: 0 patients (%)
- Dysphagia; All AEs [1]: 0 patients (%)
- Dysphagia; Grade ≥3 [1]: 0 patients (%)
- Dyspnea; All AEs [1]: 0 patients (%)
- Dyspnea; Grade ≥3 [1]: 0 patients (%)
- Fatigue; All AEs [1]: 11 (47.8) patients (%)
- Fatigue; Grade ≥3 [1]: 1 (4.3) patients (%)
- Headache; All AEs [1]: 0 patients (%)
- Headache; Grade ≥3 [1]: 0 patients (%)
- Hyperglycemia; All AEs [1]: 0 patients (%)
- Hyperglycemia; Grade ≥3 [1]: 0 patients (%)
- Hypocalcaemia; All AEs [1]: 0 patients (%)
- Hypocalcaemia; Grade ≥3 [1]: 0 patients (%)
- Hypokalaemia; All AEs [1]: 0 patients (%)
- Hypokalaemia; Grade ≥3 [1]: 0 patients (%)
- Nausea; All AEs [1]: 22 (95.7) patients (%)
- Nausea; Grade ≥3 [1]: 1 (4.3) patients (%)
- Rash; All AEs [1]: 0 patients (%)
- Rash; Grade ≥3 [1]: 0 patients (%)
- Stomatitis; All AEs [1]: 3 (13.0) patients (%)
- Stomatitis; Grade ≥3 [1]: 1 (4.3) patients (%)
- Taste disorder; All AEs [1]: 0 patients (%)
- Taste disorder; Grade ≥3 [1]: 0 patients (%)
- Upper respiratory tract infection; All AEs [1]: 3 (13.0) patients (%)
- Upper respiratory tract infection; Grade ≥3 [1]: 0 patients (%)
- Urinary tract infection; All AEs [1]: 0 patients (%)
- Urinary tract infection; Grade ≥3 [1]: 0 patients (%)
- Vomiting; All AEs [1]: 14 (60.9) patients (%)
- Vomiting; Grade ≥3 [1]: 2 (8.7) patients (%)
- Weight decreased; All AEs [1]: 0 patients (%)
- Weight decreased; Grade ≥3 [1]: 0 patients (%)
- Intrinsic clearance [2]: intermediate
- Metabolic stability [3]: metabolically stable
- Cell growth inhibition [4]: broad activity
- IC50 (CYP2B6): > 50 µM
